Data reported in PubChem BioAssay AID1918993 (Molecular Pharmacology Branch, DTP, NCI, 2023).

Test system: 233499-124-R-J3-PDC complex spheroid growth
Assay: Anticancer human tumor 233499-124-R-J3-PDC patient-derived colon adenocarcinoma cell line growth inhibition [AhR]
Conditions: for IC50: curve of first compound; for viability, T/C: stronger effect = lower value
Outline: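 Complex tumor spheroids co-cultured with HUVEC and human MSC stroma; AhR antagonists tested in combination with standard-of-care and investigational agents. Top concentration at or near clinical Cmax (else 10 microM), half-log dilutions; growth expressed as percent test/control.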

[1] = second compound 0.1 µM, first compound 0.0316 µM
[2] = second compound 0.1 µM, first compound 0.1 µM
[3] = second compound 0.1 µM, first compound 0.316 µM
[4] = second compound 0.1 µM, first compound 1 µM
[5] = second compound 0.1 µM, first compound 3.16 µM
[6] = second compound 0.1 µM, first compound 10 µM
[7] = second compound 0.316 µM, first compound 0.0316 µM
[8] = second compound 0.316 µM, first compound 0.1 µM
[9] = second compound 0.316 µM, first compound 0.316 µM
[10] = second compound 0.316 µM, first compound 1 µM
[11] = second compound 0.316 µM, first compound 3.16 µM
[12] = second compound 0.316 µM, first compound 10 µM
[13] = second compound 1 µM, first compound 0.0316 µM
[14] = second compound 1 µM, first compound 0.1 µM
[15] = second compound 1 µM, first compound 0.316 µM
[16] = second compound 1 µM, first compound 1 µM
[17] = second compound 1 µM, first compound 3.16 µM
[18] = second compound 1 µM, first compound 10 µM
[19] = second compound 3.16 µM, first compound 0.0316 µM
[20] = second compound 3.16 µM, first compound 0.1 µM
[21] = second compound 3.16 µM, first compound 0.316 µM
[22] = second compound 3.16 µM, first compound 1 µM
[23] = second compound 3.16 µM, first compound 3.16 µM
[24] = second compound 3.16 µM, first compound 10 µM
[25] = second compound 10 µM, first compound 0.0316 µM
[26] = second compound 10 µM, first compound 0.1 µM
[27] = second compound 10 µM, first compound 0.316 µM
[28] = second compound 10 µM, first compound 1 µM
[29] = second compound 10 µM, first compound 3.16 µM
[30] = second compound 10 µM, first compound 10 µM
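Further: spheroids exposed to agents for seven days before reading.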

Row | Compound | IC50 (second compound 0.1 µM) [µM] | IC50 (second compound 0.316 µM) [µM] | IC50 (second compound 1 µM) [µM] | IC50 (second compound 3.16 µM) [µM] | IC50 (second compound 10 µM) [µM] | viability, T/C [1] [%] | viability, T/C [2] [%] | viability, T/C [3] [%] | viability, T/C [4] [%] | viability, T/C [5] [%] | viability, T/C [6] [%] | viability, T/C [7] [%] | viability, T/C [8] [%] | viability, T/C [9] [%] | viability, T/C [10] [%] | viability, T/C [11] [%] | viability, T/C [12] [%] | viability, T/C [13] [%] | viability, T/C [14] [%] | viability, T/C [15] [%] | also measured
1 | COc1cc(Nc2ncc3c(n2)-c2ccc(Cl)cc2C(c2c(F)cccc2OC)=NC3)ccc1C(=O)O + Cc1cncc(-c2nc(NCCc3c[nH]c4ccccc34)c3ncn(C(C)C)c3n2)c1 | > 10 | > 10 | > 10 | > 10 | < 0.0316 | 81 | 71.7 | 81.5 | 100 | 89 | 84.2 | 84.8 | 56.9 | 83.2 | 76.9 | 75.6 | 82.5 | 78 | 68.4 | 77.8 | viability, T/C [16]: 77.9%; viability, T/C [17]: 70.1%; viability, T/C [18]: 87.6%; viability, T/C [19]: 60.5%; viability, T/C [20]: 50.9%; viability, T/C [21]: 76.8%; viability, T/C [22]: 67.2%; viability, T/C [23]: 58%; viability, T/C [24]: 71.7%; viability, T/C [25]: 8.18%; viability, T/C [26]: 22.4%; viability, T/C [27]: 26.9%; viability, T/C [28]: 10.4%; viability, T/C [29]: 29.2%; viability, T/C [30]: 39.9%
2 | COc1ccc([C@@H](O)c2cc(-c3ncnc4cc(N5CCOCC5)ccc34)c(F)cc2Cl)nn1 + CC(CO)NC(=O)c1cc(-c2ccc(Cl)cc2)nn(-c2cnn(C)c2)c1=O | > 10 | > 10 | > 10 | > 10 | > 10 | 104 | 96 | 88.8 | 87 | 92.8 | 84.7 | 108 | 99.1 | 89.7 | 83 | 75.6 | 75.3 | 96.2 | 86.5 | 76.8 | viability, T/C [16]: 86.4%; viability, T/C [17]: 73.9%; viability, T/C [18]: 74.8%; viability, T/C [19]: 98.3%; viability, T/C [20]: 86.3%; viability, T/C [21]: 84.7%; viability, T/C [22]: 88.2%; viability, T/C [23]: 69.5%; viability, T/C [24]: 78.2%; viability, T/C [25]: 90.9%; viability, T/C [26]: 83.8%; viability, T/C [27]: 66.8%; viability, T/C [28]: 75.2%; viability, T/C [29]: 77%; viability, T/C [30]: 76.9%
3 | COc1cc(C2c3cc4c(cc3C(OC3OC5COC(C)OC5C(O)C3O)C3COC(=O)C23)OCO4)cc(OC)c1O (stereo not given) + Cc1ccccc1N=Nc1ccc(NC(=O)c2ccnn2C)c(C)c1 | > 10 | > 10 | > 10 | > 10 | > 10 | 104 | 101 | 96 | 101 | 95.7 | 89.7 | 99.7 | 84.7 | 107 | 116 | 114 | 105 | 95.9 | 105 | 98.7 | viability, T/C [16]: 88.9%; viability, T/C [17]: 99.1%; viability, T/C [18]: 109%; viability, T/C [19]: 93.4%; viability, T/C [20]: 97.5%; viability, T/C [21]: 93.7%; viability, T/C [22]: 108%; viability, T/C [23]: 107%; viability, T/C [24]: 114%; viability, T/C [25]: 106%; viability, T/C [26]: 102%; viability, T/C [27]: 107%; viability, T/C [28]: 128%; viability, T/C [29]: 106%; viability, T/C [30]: 99.4%
